# Patent publication US20110092592A1, “DIAGNOSIS AND TREATMENT OF HEPATIC DISORDER” (priority 2008, published 2011)
# What was measured:
# NASH = conditions: 2700 mg/day for 12 months; Non-Patent Literature 3; cited from earlier work
# patients with NASH = assay: Example 4: EPA-E in NASH patients grouped by adiponectin gene SNP276 genotype, one year; type: in vivo, human; conditions: for NAS scores (Kleiner et al.): 900 mg twice a day, one year
# Experimental: There are three genotypes for the adiponectin gene SNP276, the T/T, G/T and G/G genotypes, and humans with the G/G genotype are said to have a lower blood adiponectin level than those with the T/T genotype.
# To a group of patients with NASH having the adiponectin gene SNP276 which is of the G/G genotype and a group of patients with NASH having the adiponectin gene SNP276 which is of the genotype other than the G/G genotype (each group comprising 15 cases), 900 mg of EPA-E is administered twice a day for one year. After the lapse of one year, therapeutic effects are evaluated by the NAS scoring of Kleiner et al. In both of the group of patients with NASH having the G/G genotype and the group of patients with NASH having the genotype other than the G/G genotype, NAS scores are improved owing to the administration of the drug for one year.
# [1] = tested on: subjects affirmatively diagnosed as having NASH; assay: Example 1: EPA-E group vs placebo control group in NASH subjects, one year; type: in vivo, human
# Experimental: Subjects affirmatively diagnosed as having NASH are divided into two groups (each comprising 15 cases), namely the EPA-E group and the control group, then the groups are caused to take EPADEL S900 (containing 900 mg of EPA-E) and a placebo, respectively, twice a day. Doses are modified as appropriate to the subjects' conditions. Following the method described in American Journal of Gastroenterology 2001, Vol. 96, pp. 2711-2717 with respect to the criteria for diagnosing subjects, monitoring, histological testing, statistic analysis, and so forth, blood chemistry tests on ALT, AST, and the like are performed and the plasma fatty acid composition is determined over a dosage period of one year, and liver biopsy is conducted at the end of dosage, so as to make histological evaluations.
# Of the EPA-E group, 15 cases are sorted into two groups, one (“effective” group) comprising the cases in which the score in accordance with the method of Brunt et al. is changed after the administration of the drug from that before the administration by 1 or 2, and the other (“ineffective” group) comprising the cases in which the score after the administration is not changed from that before the administration, and analysis is conducted on the change in the plasma fatty acid composition as determined over the dosage period of one year. The OA/SA ratio before the administration is not different between the effective group and the ineffective group. […] The reduction rate of the OA/SA ratio in two months is calculated by the equation: reduction rate (%)=[(OA/SA ratio before start of administration)−(OA/SA ratio two months after start of administration)]/OA/SA ratio before start of administration×100.
# [2] = tested on: patients with NASH having liver fibrosis; assay: Example 3: EPA-E with dietary restriction and exercise therapy in NASH patients having liver fibrosis, one year; type: in vivo, human; conditions: one year after start of treatment
# Experimental: Patients with NASH having liver fibrosis, that is to say, subjects suffering from fibrosis classified to stage 1 or 2 according to the fibrosis staging of Brunt et al. are collected (15 cases). Dietary restriction and exercise therapy are conducted so that the blood OA/SA ratio as monthly measured may be reduced in value from that measured previously, while 900 mg of EPA-E is administered twice a day, so as to do follow-up for one year. To the subjects in whom no change is recognized in OA/SA ratio, 900 mg of EPA-E is administered thrice a day.
# The subjects in whom the reduction ratio of the OA/SA ratio in one month after the start of the administration is not lower than 5% are included in group A, while the subjects in whom the reduction ratio of the OA/SA ratio in one month after the start of the administration is lower than […] are included in group B. The reduction rate of the OA/SA ratio in one month is calculated by the equation: reduction rate (%)=[(OA/SA ratio before start of administration)−(OA/SA ratio one month after start of administration)]/OA/SA ratio before start of administration×100.
# [3] = EPADEL S900 (900 mg EPA-E) twice a day, one year, vs before treatment and vs control group
# [4] = effective group (Brunt score changed by 1 or 2)
# [5] = ineffective group (Brunt score not changed)
smiles,measurement,setting,value
"CC/C=C\C/C=C\C/C=C\C/C=C\C/C=C\CCCC(=O)OCC [EPA-E, ethyl icosapentate ester]","NASH (AST, ALT, inflammatory cytokines, oxidative stress markers, liver biopsy)",NASH,amelioration of NASH
same,degree of improvement in NAS score,patients with NASH; G/G genotype group vs other genotype group,higher in the group of patients with NASH having the G/G genotype
same,NAS scores (Kleiner et al.),patients with NASH; G/G genotype group,improved
same,NAS scores (Kleiner et al.),patients with NASH; genotype other than G/G,improved
same,mean value of ALT,[1]; [3],reduced from those before treatment more markedly in comparison with the control group
same,mean value of AST,[1]; [3],reduced from those before treatment more markedly in comparison with the control group
same,TIMP-1,[1]; [4],gradually reduced in value
same,hyaluronic acid,[1]; [4],gradually reduced in value
same,type IV collagen,[1]; [4],gradually reduced in value
same,reduction rate of the OA/SA ratio in two months,[1]; effective group compared with ineffective group,high in the effective group as compared with the ineffective group
same,plasma OA/SA ratio,"[1]; for two months after start of administration, effective and ineffective groups",tends to be reduced in both groups
same,plasma OA/SA ratio,"[1]; from the lapse of two months on, effective and ineffective groups",tends more or less to be reduced
same,TIMP-1,[1]; [5],hardly changed in value
same,hyaluronic acid,[1]; [5],hardly changed in value
same,type IV collagen,[1]; [5],hardly changed in value
same,"average fibrosis, fibrosis staging of Brunt et al.",[1]; liver biopsy at the end of one-year dosage,from stage 2 to stage 1
same,plasma OA/SA ratio,"[1]; two months after start of administration, effective group vs ineffective group",lower in value than in the ineffective group
same,"fibrosis, staging of Brunt et al., by liver biopsy",[2]; group A (OA/SA reduction in one month not lower than 5%),"ameliorated from stage 2 to stage 1 or non-fibrotic stage, or again, from stage 1 to non-fibrotic stage"
same,amelioration of fibrosis,[2]; group B (OA/SA reduction in one month lower than 1%),slight
